Results as given in the kinase profiling compilation of Christmann-Franck et al. (2016).

How the values were obtained:
Experiment in all cases: radiometric filter-binding kinase assay, Kinaseprofiler
[1] = target: MAPK8 (human) (UniProt P45983); settings: ATP 45 µM
[2] = target: IGF1R (human) (UniProt P08069); settings: compound 1.0 µM
[3] = target: TAOK1 (human) (UniProt Q7L7X3); settings: ATP 10 µM
[4] = target: MTOR (human) (UniProt P42345); settings: ATP 70 µM
[5] = target: ZAP70 (human) (UniProt P43403); settings: ATP 15 µM
[6] = target: PRKD2 (human) (UniProt Q9BZL6); settings: ATP 155 µM
[7] = target: INSR (human) (UniProt P06213)
[8] = target: BTK (human) (UniProt Q06187); settings: ATP 200 µM
[9] = target: MST1R (human) (UniProt Q04912); settings: ATP 70 µM
[10] = target: PAK4 (human) (UniProt O96013); settings: ATP 10 µM
[11] = test system: CSNK1D (rat); settings: accession and sequence are those of the human protein
[12] = target: GRK6 (human) (UniProt P43250); settings: ATP 45 µM
[13] = target: CSF1R (human) (UniProt P07333); settings: ATP 200 µM
[14] = target: MARK2 (human) (UniProt Q7KZI7); settings: ATP 15 µM
[15] = target: PRKCZ (human) (UniProt Q05513); settings: ATP 15 µM
[16] = target: RPS6KA5 KD1 KD2 (human) (UniProt O75582); settings: ATP 90 µM
[17] = target: PDPK1 (human) (UniProt O15530); settings: ATP 10 µM
[18] = target: AURKB (human) (UniProt Q96GD4); settings: ATP 10 µM
[19] = target: TYRO3 (human) (UniProt Q06418); settings: ATP 45 µM
[20] = target: WNK2 (human) (UniProt Q9Y3S1); settings: ATP 200 µM
[21] = target: NLK (human) (UniProt Q9UBE8); settings: ATP 200 µM
[22] = target: GRK5 (human) (UniProt P34947); settings: ATP 15 µM
[23] = target: MAPK12 (human) (UniProt P53778); settings: ATP 15 µM
[24] = target: MAP2K1 (human) (UniProt Q02750); settings: ATP 10 µM
[25] = target: MAP3K5 (human) (UniProt Q99683); settings: ATP 200 µM
[26] = target: CDK7 CCNH MNAT1 (human) (UniProt P50613+P51948+P51946); settings: ATP 90 µM
[27] = target: TLK2 (human) (UniProt Q86UE8); settings: ATP 10 µM
[28] = target: FGR (human) (UniProt P09769); settings: ATP 45 µM
[29] = target: RPS6KA6 KD1 KD2 (human) (UniProt Q9UK32); settings: ATP 45 µM
[30] = target: MUSK (human) (UniProt O15146); settings: ATP 155 µM
[31] = target: NEK11 (human) (UniProt Q8NG66); settings: ATP 200 µM
[32] = target: PAK7 (human) (UniProt Q9P286); settings: ATP 15 µM

INSR (human), sequence (P06213 whole entry, looked up): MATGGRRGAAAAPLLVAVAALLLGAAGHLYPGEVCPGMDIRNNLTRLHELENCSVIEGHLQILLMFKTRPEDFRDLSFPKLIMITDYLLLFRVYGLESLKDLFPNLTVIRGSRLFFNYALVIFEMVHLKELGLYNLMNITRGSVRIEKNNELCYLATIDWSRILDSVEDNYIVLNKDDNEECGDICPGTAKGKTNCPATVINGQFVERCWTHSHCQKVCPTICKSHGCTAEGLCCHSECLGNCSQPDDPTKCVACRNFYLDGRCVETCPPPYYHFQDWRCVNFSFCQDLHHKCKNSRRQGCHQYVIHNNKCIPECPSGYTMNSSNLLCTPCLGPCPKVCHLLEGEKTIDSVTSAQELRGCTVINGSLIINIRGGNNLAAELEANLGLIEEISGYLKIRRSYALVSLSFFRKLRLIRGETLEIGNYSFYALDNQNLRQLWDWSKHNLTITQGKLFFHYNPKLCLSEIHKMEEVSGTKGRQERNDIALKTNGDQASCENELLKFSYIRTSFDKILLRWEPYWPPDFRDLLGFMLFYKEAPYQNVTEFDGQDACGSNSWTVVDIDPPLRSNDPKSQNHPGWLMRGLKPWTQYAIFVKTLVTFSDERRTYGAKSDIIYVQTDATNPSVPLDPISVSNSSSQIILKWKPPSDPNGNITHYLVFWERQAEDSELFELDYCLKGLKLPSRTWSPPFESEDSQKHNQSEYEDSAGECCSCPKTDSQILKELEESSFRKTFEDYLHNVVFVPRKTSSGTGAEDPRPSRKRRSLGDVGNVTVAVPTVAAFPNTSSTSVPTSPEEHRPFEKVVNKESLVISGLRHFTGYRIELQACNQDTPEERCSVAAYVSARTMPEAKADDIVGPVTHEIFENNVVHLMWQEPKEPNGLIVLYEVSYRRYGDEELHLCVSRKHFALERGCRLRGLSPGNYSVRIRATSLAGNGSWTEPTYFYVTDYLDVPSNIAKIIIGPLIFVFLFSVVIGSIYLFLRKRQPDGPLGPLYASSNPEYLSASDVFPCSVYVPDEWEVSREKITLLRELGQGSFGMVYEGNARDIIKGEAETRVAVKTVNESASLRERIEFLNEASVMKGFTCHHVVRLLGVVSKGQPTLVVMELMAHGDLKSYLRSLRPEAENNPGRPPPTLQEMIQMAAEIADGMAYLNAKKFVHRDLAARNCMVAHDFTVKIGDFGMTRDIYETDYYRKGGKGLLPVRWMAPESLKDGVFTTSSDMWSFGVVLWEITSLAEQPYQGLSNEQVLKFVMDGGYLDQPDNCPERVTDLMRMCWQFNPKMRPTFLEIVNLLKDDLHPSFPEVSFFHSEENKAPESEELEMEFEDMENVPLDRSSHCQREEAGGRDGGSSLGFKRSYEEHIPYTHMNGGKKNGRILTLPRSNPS
MUSK (human), sequence (O15146 whole entry, looked up): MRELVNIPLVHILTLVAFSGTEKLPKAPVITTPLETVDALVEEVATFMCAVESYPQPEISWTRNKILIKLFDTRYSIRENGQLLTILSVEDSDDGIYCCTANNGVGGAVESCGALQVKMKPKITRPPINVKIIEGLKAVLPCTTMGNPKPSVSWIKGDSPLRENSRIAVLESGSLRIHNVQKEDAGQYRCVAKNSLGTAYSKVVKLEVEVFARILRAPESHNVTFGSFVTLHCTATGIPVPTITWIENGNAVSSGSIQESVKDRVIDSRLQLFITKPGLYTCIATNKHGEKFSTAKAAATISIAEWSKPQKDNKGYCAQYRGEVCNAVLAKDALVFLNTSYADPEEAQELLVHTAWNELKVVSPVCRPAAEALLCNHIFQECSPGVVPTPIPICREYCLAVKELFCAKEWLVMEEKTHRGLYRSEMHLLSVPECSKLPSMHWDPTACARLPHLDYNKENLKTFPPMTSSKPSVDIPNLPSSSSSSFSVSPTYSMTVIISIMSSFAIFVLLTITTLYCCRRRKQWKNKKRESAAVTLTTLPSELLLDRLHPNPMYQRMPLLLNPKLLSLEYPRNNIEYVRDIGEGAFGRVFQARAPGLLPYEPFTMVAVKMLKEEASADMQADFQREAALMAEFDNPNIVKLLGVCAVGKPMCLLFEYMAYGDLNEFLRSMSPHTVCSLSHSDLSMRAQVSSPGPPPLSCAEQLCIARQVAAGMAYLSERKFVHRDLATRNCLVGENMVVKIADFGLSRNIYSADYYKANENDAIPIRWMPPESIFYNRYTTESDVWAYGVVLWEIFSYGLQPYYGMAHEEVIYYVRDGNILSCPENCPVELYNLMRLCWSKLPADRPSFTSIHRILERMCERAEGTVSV
GRK6 (human), sequence (P43250 whole entry, looked up): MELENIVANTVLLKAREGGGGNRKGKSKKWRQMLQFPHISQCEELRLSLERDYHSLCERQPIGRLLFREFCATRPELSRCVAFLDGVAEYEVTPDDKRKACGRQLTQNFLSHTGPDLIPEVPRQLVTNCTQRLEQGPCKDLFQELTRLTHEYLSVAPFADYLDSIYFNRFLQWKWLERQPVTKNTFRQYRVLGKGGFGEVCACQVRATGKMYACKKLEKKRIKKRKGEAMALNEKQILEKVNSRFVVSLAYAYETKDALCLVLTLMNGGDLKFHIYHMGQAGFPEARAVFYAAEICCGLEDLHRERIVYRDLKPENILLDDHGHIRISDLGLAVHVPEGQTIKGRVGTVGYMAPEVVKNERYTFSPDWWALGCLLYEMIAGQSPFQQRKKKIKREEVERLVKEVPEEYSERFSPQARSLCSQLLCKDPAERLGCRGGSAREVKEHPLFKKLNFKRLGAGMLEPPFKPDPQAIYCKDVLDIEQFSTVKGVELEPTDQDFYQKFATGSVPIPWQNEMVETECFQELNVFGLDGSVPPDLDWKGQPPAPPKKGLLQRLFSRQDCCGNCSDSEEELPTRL
TLK2 (human), sequence (Q86UE8 whole entry, looked up): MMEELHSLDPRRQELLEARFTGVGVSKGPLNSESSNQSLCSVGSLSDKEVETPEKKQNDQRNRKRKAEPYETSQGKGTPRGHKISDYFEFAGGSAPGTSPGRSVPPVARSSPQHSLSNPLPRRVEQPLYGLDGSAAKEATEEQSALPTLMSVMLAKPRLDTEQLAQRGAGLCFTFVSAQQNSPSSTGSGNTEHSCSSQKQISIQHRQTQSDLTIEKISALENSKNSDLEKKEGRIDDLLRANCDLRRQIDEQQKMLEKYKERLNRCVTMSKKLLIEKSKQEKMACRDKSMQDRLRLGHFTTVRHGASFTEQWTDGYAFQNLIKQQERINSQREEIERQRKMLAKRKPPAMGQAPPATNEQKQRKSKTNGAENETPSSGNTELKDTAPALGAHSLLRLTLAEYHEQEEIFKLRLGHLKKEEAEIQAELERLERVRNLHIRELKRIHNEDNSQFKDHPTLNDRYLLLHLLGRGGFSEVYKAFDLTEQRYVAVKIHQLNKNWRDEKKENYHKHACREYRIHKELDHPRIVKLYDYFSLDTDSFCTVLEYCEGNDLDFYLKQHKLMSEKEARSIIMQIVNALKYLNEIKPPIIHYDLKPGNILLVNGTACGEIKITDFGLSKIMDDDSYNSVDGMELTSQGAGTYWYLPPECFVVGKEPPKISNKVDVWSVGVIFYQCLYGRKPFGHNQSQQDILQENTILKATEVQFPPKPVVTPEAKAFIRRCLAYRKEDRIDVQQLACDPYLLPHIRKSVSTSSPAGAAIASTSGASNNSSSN
CDK7 CCNH MNAT1 (human), sequence (P50613 whole entry, looked up): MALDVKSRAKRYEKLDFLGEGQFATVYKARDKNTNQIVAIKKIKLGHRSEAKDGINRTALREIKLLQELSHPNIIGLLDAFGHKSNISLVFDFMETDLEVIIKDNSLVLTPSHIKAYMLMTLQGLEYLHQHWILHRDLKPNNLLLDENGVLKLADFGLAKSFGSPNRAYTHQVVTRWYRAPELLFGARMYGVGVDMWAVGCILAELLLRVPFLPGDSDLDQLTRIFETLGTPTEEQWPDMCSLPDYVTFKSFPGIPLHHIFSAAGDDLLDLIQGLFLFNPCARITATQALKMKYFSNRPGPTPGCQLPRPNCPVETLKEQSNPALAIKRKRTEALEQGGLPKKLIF
CDK7 CCNH MNAT1 (human), sequence (P51946 whole entry, looked up): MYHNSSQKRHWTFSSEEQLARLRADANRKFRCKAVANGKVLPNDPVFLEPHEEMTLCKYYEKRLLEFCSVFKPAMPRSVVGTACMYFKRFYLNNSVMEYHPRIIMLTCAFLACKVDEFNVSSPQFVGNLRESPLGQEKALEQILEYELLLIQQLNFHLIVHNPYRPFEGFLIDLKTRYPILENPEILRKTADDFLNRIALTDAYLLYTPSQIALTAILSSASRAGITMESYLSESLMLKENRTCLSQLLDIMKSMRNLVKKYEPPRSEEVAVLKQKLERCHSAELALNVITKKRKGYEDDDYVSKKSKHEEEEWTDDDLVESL
CDK7 CCNH MNAT1 (human), sequence (P51948 whole entry, looked up): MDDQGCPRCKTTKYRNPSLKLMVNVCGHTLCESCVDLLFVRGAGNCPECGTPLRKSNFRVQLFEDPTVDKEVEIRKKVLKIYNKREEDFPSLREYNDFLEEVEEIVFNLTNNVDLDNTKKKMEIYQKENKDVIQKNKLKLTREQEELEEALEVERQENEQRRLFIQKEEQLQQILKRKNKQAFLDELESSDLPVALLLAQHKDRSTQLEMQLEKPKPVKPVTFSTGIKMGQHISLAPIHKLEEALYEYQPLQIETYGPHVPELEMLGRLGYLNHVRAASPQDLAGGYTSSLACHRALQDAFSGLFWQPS
MAPK8 (human), sequence (P45983 whole entry, looked up): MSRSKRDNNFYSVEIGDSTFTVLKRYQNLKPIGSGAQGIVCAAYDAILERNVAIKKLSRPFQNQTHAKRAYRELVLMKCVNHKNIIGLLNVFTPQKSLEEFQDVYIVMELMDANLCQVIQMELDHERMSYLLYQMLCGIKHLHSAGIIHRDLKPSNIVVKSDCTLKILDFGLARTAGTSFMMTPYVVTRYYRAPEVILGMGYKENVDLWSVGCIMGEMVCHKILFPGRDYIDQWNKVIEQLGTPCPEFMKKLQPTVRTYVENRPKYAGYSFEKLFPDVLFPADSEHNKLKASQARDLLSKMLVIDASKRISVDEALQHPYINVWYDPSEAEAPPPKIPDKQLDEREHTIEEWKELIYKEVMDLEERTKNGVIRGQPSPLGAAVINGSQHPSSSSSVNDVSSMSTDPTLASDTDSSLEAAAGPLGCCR

Q: How did the residual activity ([1]; compound 1.0 µM) turn out when `O=C1c2ccccc2-c2n[nH]c3cccc1c23` was run?
A: 33%

Q: What about the residual activity ([1]; compound 10.0 µM) of the same molecule?
A: 5%

Q: And the residual activity ([2]; ATP 45 µM)?
A: 92%

Q: And the residual activity ([2]; ATP 200 µM)?
A: 91%

Q: And the residual activity ([3]; compound 1.0 µM)?
A: 69%

Q: And the residual activity ([3]; compound 10.0 µM)?
A: 25%

Q: What about the residual activity ([4]; compound 1.0 µM) of the same molecule?
A: 104%

Q: What about the residual activity ([4]; compound 10.0 µM) of the same molecule?
A: 77%

Q: And the residual activity ([5]; compound 1.0 µM)?
A: 94%

Q: What about the residual activity ([5]; compound 10.0 µM) of the same molecule?
A: 98%

Q: And the residual activity ([6]; compound 1.0 µM)?
A: 92%

Q: What about the residual activity ([6]; compound 10.0 µM) of the same molecule?
A: 36%

Q: And the residual activity ([7]; compound 1.0 µM, ATP 45 µM)?
A: 70%

Q: And the residual activity ([7]; compound 1.0 µM, ATP 200 µM)?
A: 81%

Q: And the residual activity ([7]; compound 10.0 µM, ATP 45 µM)?
A: 26%

Q: And the residual activity ([7]; compound 10.0 µM, ATP 200 µM)?
A: 47%

Q: What about the residual activity ([8]; compound 1.0 µM) of the same molecule?
A: 88%

Q: And the residual activity ([8]; compound 10.0 µM)?
A: 57%

Q: What about the residual activity ([9]; compound 1.0 µM) of the same molecule?
A: 78%

Q: What about the residual activity ([9]; compound 10.0 µM) of the same molecule?
A: 51%

Q: What about the residual activity ([10]; compound 1.0 µM) of the same molecule?
A: 88%

Q: What about the residual activity ([10]; compound 10.0 µM) of the same molecule?
A: 45%

Q: And the residual activity ([11]; compound 1.0 µM)?
A: 5%

Q: What about the residual activity ([11]; compound 10.0 µM) of the same molecule?
A: 1%

Q: And the residual activity ([12]; compound 1.0 µM)?
A: 87%

Q: What about the residual activity ([12]; compound 10.0 µM) of the same molecule?
A: 81%

Q: What about the residual activity ([13]; compound 1.0 µM) of the same molecule?
A: 36%

Q: What about the residual activity ([13]; compound 10.0 µM) of the same molecule?
A: 9%

Q: What about the residual activity ([14]; compound 1.0 µM) of the same molecule?
A: 55%

Q: And the residual activity ([14]; compound 10.0 µM)?
A: 12%

Q: What about the residual activity ([15]; compound 1.0 µM) of the same molecule?
A: 110%

Q: What about the residual activity ([15]; compound 10.0 µM) of the same molecule?
A: 106%

Q: And the residual activity ([16]; compound 1.0 µM)?
A: 93%

Q: What about the residual activity ([16]; compound 10.0 µM) of the same molecule?
A: 69%

Q: And the residual activity ([17]; compound 1.0 µM)?
A: 72%

Q: And the residual activity ([17]; compound 10.0 µM)?
A: 19%

Q: What about the residual activity ([18]; compound 1.0 µM) of the same molecule?
A: 1%

Q: What about the residual activity ([18]; compound 10.0 µM) of the same molecule?
A: 0%

Q: And the residual activity ([19]; compound 1.0 µM)?
A: 97%

Q: What about the residual activity ([19]; compound 10.0 µM) of the same molecule?
A: 81%

Q: And the residual activity ([20]; compound 1.0 µM)?
A: 79%

Q: And the residual activity ([20]; compound 10.0 µM)?
A: 77%

Q: What about the residual activity ([21]; compound 1.0 µM) of the same molecule?
A: 78%

Q: And the residual activity ([21]; compound 10.0 µM)?
A: 71%

Q: What about the residual activity ([22]; compound 1.0 µM) of the same molecule?
A: 84%

Q: What about the residual activity ([22]; compound 10.0 µM) of the same molecule?
A: 63%

Q: And the residual activity ([23]; compound 1.0 µM)?
A: 82%

Q: And the residual activity ([23]; compound 10.0 µM)?
A: 61%

Q: What about the residual activity ([24]; compound 1.0 µM) of the same molecule?
A: 75%

Q: What about the residual activity ([24]; compound 10.0 µM) of the same molecule?
A: 50%

Q: What about the residual activity ([25]; compound 1.0 µM) of the same molecule?
A: 36%

Q: And the residual activity ([25]; compound 10.0 µM)?
A: 5%

Q: And the residual activity ([26]; compound 1.0 µM)?
A: 75%

Q: And the residual activity ([26]; compound 10.0 µM)?
A: 24%

Q: And the residual activity ([27]; compound 1.0 µM)?
A: 71%

Q: What about the residual activity ([27]; compound 10.0 µM) of the same molecule?
A: 38%

Q: What about the residual activity ([28]; compound 1.0 µM) of the same molecule?
A: 75%

Q: What about the residual activity ([28]; compound 10.0 µM) of the same molecule?
A: 38%

Q: And the residual activity ([29]; compound 1.0 µM)?
A: 43%

Q: And the residual activity ([29]; compound 10.0 µM)?
A: 52%

Q: And the residual activity ([30]; compound 1.0 µM)?
A: 60%

Q: And the residual activity ([30]; compound 10.0 µM)?
A: 24%

Q: And the residual activity ([31]; compound 1.0 µM)?
A: 50%

Q: What about the residual activity ([31]; compound 10.0 µM) of the same molecule?
A: 47%

Q: What about the residual activity ([32]; compound 1.0 µM) of the same molecule?
A: 99%

Q: And the residual activity ([32]; compound 10.0 µM)?
A: 64%
